Data taken from BigSolDB 2.1.

COc1cc(NS(=O)(=O)c2ccc(N)cc2)ncn1
Details	solubility (mole fraction)
in acetone, 299.05 K	0.00789
in acetone, 303.3 K	0.00849
in acetone, 308.2 K	0.00935
in acetone, 313.15 K	0.0105
in acetone, 318.05 K	0.0112
in acetone, 323.05 K	0.0124
in ethanol, 297.95 K	0.000496
in ethanol, 310.95 K	0.000859
in ethanol, 317.65 K	0.00109
in ethanol, 327.95 K	0.00161
in ethanol, 337.85 K	0.00243
in ethanol, 347.15 K	0.00356
in ethyl acetate, 300.65 K	0.00114
in ethyl acetate, 308.2 K	0.00131
in ethyl acetate, 316.05 K	0.00146
in ethyl acetate, 324 K	0.00169
in ethyl acetate, 331.95 K	0.00184
in ethyl acetate, 339.8 K	0.00205
in methanol, 294.55 K	0.000735
in methanol, 303.15 K	0.000951
in methanol, 309.95 K	0.00117
in methanol, 317.75 K	0.00164
in methanol, 325.85 K	0.00221
in methanol, 332.65 K	0.00284
in n-butanol, 305.2 K	0.000117
in n-butanol, 318.05 K	0.000288
in n-butanol, 327.85 K	0.000607
in n-butanol, 339.85 K	0.00121
in n-butanol, 352.55 K	0.0029
in n-butanol, 362.15 K	0.00479
in n-propanol, 300.25 K	0.000233
in n-propanol, 308.15 K	0.00037
in n-propanol, 318.05 K	0.000598
in n-propanol, 327.95 K	0.00102
in n-propanol, 342.75 K	0.00198
in n-propanol, 352.45 K	0.00353
in n-propanol, 361.85 K	0.00556
